Source: patent US9090583B2, “Benzopyrone estrogen receptor regulator” (BEIJING SHENOGEN PHARMA GROUP LTD., priority 2010, dated 2015)
Where two headings read alike, the source gives them in different places.

Tests used:
[1] = test system: MDA-MB-231 cells; experiment: CellTiter-Glo Luminescent Cell Viability Assay on ER-negative breast cancer MDA-MB-231 cells; type: cell-based; conditions: average ± standard deviation when tested more than 3 times, read-out: Inhibition of the viability of breast cancer cells, IC50
Experimental: A: In Vitro CellTiter-Glo® Luminescent Cell Viability Assay on ER-Negative Breast Cancer MDA-MB-231 Cells:
MDA-MB-231 cells were maintained at 37° C., under 5% CO2 atmosphere in DMEM containing 10% fetal calf serum. The cells were seeded on 96-well plate at a density of 6×10^3 cells per well. MDA-MB-231 cells were treated with a test compound dissolved in DMSO at the concentrations of zero, 0.3 μM, 0.5 μM, 1 μM, 2 μM, 3 μM, 5 μM, 10 μM, 20 μM, 30 μM, 50 μM and 100 μM for 72 hours. Treated cells were examined by CellTiter-Glo® Luminescent Cell Viability Assay Kit (Promega), and luminescence values were recorded with Envision.

[2] = test system: MCF7 cells; experiment: CellTiter-Glo Luminescent Cell Viability Assay on ER-positive breast cancer MCF-7 cells; type: cell-based, human; conditions: average ± standard deviation when tested more than 3 times, read-out: Inhibition of the viability of breast cancer cells, IC50
Description: B: In Vitro CellTiter-Glo® Luminescent Cell Viability Assay on ER-Positive Breast Cancer MCF-7 Cells:
MCF7 cells are breast cancer cell lines that highly express ER-66, ER-46 and ER-36. (Relevance of breast cancer cell lines as models for breast tumours: an update. Marc Lacroix, Guy Leclercq, Breast Cancer Research and Treatment (2004) 83, 249-289; Wang et al., Proc. Natl. Acad. Sci. U.S.A. 103:9063-9068 (2006)). MCF7 cells were obtained from ATCC and maintained in Dulbecco's Modified Eagles Medium (DMEM) and 10% fetal calf serum at 37° C., under 5% CO2 atmosphere. The cells were seeded on 96-well plate at a density of 6×10^3 cells per well. MCF7 cells were treated with a test compound dissolved in DMSO at the concentrations of zero, 0.3 μM, 0.5 μM, 1 μM, 2 μM, 3 μM, 5 μM, 10 μM, 20 μM, 30 μM, 50 μM and 100 μM for 72 hours. Treated cells were examined by CellTiter-Glo® Luminescent Cell Viability Assay Kit (Promega), and luminescence values were recorded with Envision.

IC50 ([1]; 72 hours) [µM]	IC50 ([2]; 72 hours) [µM]	IC50 ([1]; Homo sapiens, MDA-MB-231, 72 h) [µM]	IC50 ([2]; Homo sapiens, MCF7, 72 h) [µM]	Compound
25	37.2	–	–	COc1c(-c2ccnn2C)oc2c(CC=C(C)C)c(O)c(CC=C(C)C)c(O)c2c1=O [Compound 48, 2-(1-methyl-1H-pyrazol-5-yl)-5,7-dihydroxy-3-methoxy-6,8-di(3-methyl-2-buten-1-yl)-4H-benzopyran-4-one]
–	–	> 100	10.2	COc1c(-c2ccc(C(C)=O)cc2)oc2c(CC=C(C)C)c(O)c(CC=C(C)C)c(O)c2c1=O [Compound 65, 2-(4-acetylphenyl)-5,7-dihydroxy-3-methoxy-6,8-di(3-methyl-2-buten-1-yl)-4H-benzopyran-4-one]
–	–	26.3	> 100	COc1c(CC=C(C)C)c(OC)c2c(=O)c(OC)c(-c3ccc(Cl)c(F)c3)oc2c1CC=C(C)C [Compound 82B, 2-(3-fluoro-4-chlorophenyl)-3,5,7-trimethoxy-6,8-di(3-methyl-2-buten-1-yl)-4H-benzopyran-4-one]
–	–	5.96	29.2	COc1c(-c2ccc(C(=O)O)cc2)oc2c(CC=C(C)C)c(O)c(CC=C(C)C)c(O)c2c1=O [Compound 56, 4-[5,7-dihydroxy-3-methoxy-6,8-di(3-methyl-2-butenyl)-4-oxo-4H-benzopyran-2-yl]benzoic acid]
–	–	22.3	> 100	COc1c(-c2ncccn2)oc2c(CC=C(C)C)c(O)c(CC=C(C)C)c(O)c2c1=O [Compound 33, 2-(pyrimidin-2-yl)-5,7-dihydroxy-3-methoxy-6,8-di(3-methyl-2-buten-1-yl)-4H-benzopyran-4-one]
–	–	> 100	> 100	CC(C)=CCc1c(O)c(CC=C(C)C)c2oc(-c3ccc(F)c(F)c3)cc(=O)c2c1O [Compound 85, 2-(3,4-difluorophenyl)-5,7-dihydroxy-6,8-di(3-methyl-2-buten-1-yl)-4H-benzopyran-4-one]
–	–	24	23.5	COc1c(-c2ccsc2)oc2c(CC=C(C)C)c(O)c(CC=C(C)C)c(O)c2c1=O [Compound 40, 2-(thiophen-3-yl)-5,7-dihydroxy-3-methoxy-6,8-di(3-methyl-2-buten-1-yl)-4H-benzopyran-4-one]
3.27	4.66	–	–	COc1c(-c2ccc(C(C)O)cc2)oc2c(CC=C(C)C)c(O)c(CC=C(C)C)c(O)c2c1=O (stereo not shown) [Compound 67]
23.6	13.5	–	–	COc1c(-c2ccc(Cl)cc2F)oc2c(CC=C(C)C)c(O)c(CC=C(C)C)c(O)c2c1=O [Compound 14, 2-(2-fluoro-4-chlorophenyl)-5,7-dihydroxy-3-methoxy-6,8-di(3-methyl-2-butylene-1-yl)-4H-benzopyran-4-one]
–	–	> 100	> 100	COc1c(CC=C(C)C)c(O)c2c(=O)c(OC)c(-c3ccc(F)c(F)c3)oc2c1CC=C(C)C [Compound 81A, 2-(3,4-difluorophenyl)-5-hydroxy-3,7-dimethoxy-6,8-di(3-methyl-2-buten-1-yl)-4H-benzopyran-4-one]
–	–	25.6	> 100	COc1c(C2CC2)oc2c(CC=C(C)C)c(O)c(CC=C(C)C)c(O)c2c1=O [Compound 34, 2-cyclopropyl-5,7-dihydroxy-3-methoxy-6,8-di(3-methyl-2-buten-1-yl)-4H-benzopyran-4-one]
–	–	10.4 ± 1.93	6.62 ± 1.93	CC(C)=CCc1c(O)c(CC=C(C)C)c2oc(-c3ccc(F)c(F)c3)c(O)c(=O)c2c1O [Compound 95, 2-(3,4-difluorophenyl)-3,5,7-trihydroxy-6,8-di(3-methyl-2-buten-1-yl)-4H-benzopyran-4-one]
–	–	31.3	15.6	CC(C)=CCc1c(O)c(CC=C(C)C)c2oc(-c3ccc(Cl)c(F)c3)c(C)c(=O)c2c1O [Compound 94, 2-(3-fluoro-4-chlorophenyl)-3-methyl-5,7-dihydroxy-6,8-di(3-methyl-2-buten-1-yl)-4H-benzopyran-4-one]
–	–	25.1	> 100	COc1c(-c2ccncc2)oc2c(CC=C(C)C)c(O)c(CC=C(C)C)c(O)c2c1=O [Compound 31, 2-(pyridin-4-yl)-5,7-dihydroxy-3-methoxy-6,8-di(3-methyl-2-buten-1-yl)-4H-benzopyran-4-one]
–	–	3.63	> 100	COc1c(-c2ccc(OC(F)(F)F)cc2)oc2c(CC=C(C)C)c(O)c(CC=C(C)C)c(O)c2c1=O [Compound 58, 2-(4-trifluoromethoxyphenyl)-5,7-dihydroxy-3-methoxy-6,8-di(3-methyl-2-buten-1-yl)-4H-benzopyran-4-one]
–	–	> 100	> 100	COc1c(-c2cocn2)oc2c(CC=C(C)C)c(O)c(CC=C(C)C)c(O)c2c1=O [Compound 44, 2-(oxazol-4-yl)-5,7-dihydroxy-3-methoxy-6,8-di(3-methyl-2-buten-1-yl)-4H-benzopyran-4-one]
–	–	> 100	5.12	COc1c(-c2ccc(N(C)C)cc2)oc2c(CC=C(C)C)c(O)c(CC=C(C)C)c(O)c2c1=O [Compound 59, 2-(4-dimethylaminophenyl)-5,7-dihydroxy-3-methoxy-6,8-di(3-methyl-2-buten-1-yl)-4H-benzopyran-4-one]
–	–	> 100	> 100	CCOc1ccc(-c2oc3c(CC=C(C)C)c(O)c(CC=C(C)C)c(O)c3c(=O)c2OC)cc1 [Compound 24, 2-(4-ethoxyphenyl)-5,7-dihydroxy-3-methoxy-6,8-di(3-methyl-2-buten-1-yl)-4H-benzopyran-4-one]
–	–	> 100	> 100	COc1c(CC=C(C)C)c(O)c2c(=O)c(OC)c(-c3ccc(Cl)c(F)c3)oc2c1CC=C(C)C [Compound 82A, 2-(3-fluoro-4-chlorophenyl)-5-hydroxy-3,7-dimethoxy-6,8-di(3-methyl-2-buten-1-yl)-4H-benzopyran-4-one]
13.8 ± 2.1	47.2 ± 22.5	–	–	2-(benzo[d][1,3]dioxo-5-yl)-5,7-dihydroxy-3-methoxy-6,8-di(3-methyl-2-buten-1-yl)-4H-benzopyran-4-one [Compound 21]
–	–	> 100	65.8	COc1c(-c2cccs2)oc2c(CC=C(C)C)c(O)c(CC=C(C)C)c(O)c2c1=O [Compound 39, 2-(thiophen-2-yl)-5,7-dihydroxy-3-methoxy-6,8-di(3-methyl-2-buten-1-yl)-4H-benzopyran-4-one]
–	–	28.8	20.1	CCOc1ccc(-c2oc3c(CC=C(C)C)c(O)c(CC=C(C)C)c(O)c3c(=O)c2OC)cc1F [Compound 23, 2-(3-fluoro-4-ethoxylphenyl)-5,7-dihydroxy-3-methoxy-6,8-di(3-methyl-2-buten-1-yl)-4H-benzopyran-4-one]
17 ± 4.97	19.5 ± 1.02	–	–	COc1c(-c2ccc(Cl)cn2)oc2c(CC=C(C)C)c(O)c(CC=C(C)C)c(O)c2c1=O [Compound 53, 2-(5-chloropyridin-2-yl)-5,7-dihydroxy-3-methoxy-6,8-di(3-3-methyl-2-buten-1-yl)-4H-benzopyran-4-one]
16.3	> 100	–	–	COc1c(-c2ccc(C)cc2)oc2c(CC=C(C)C)c(O)c(CC=C(C)C)c(O)c2c1=O [Compound 16, 2-(4-methylphenyl)-5,7-dihydroxy-3-methoxy-6,8-di(3-methyl-2-butylene-1-yl)-4H-benzopyran-4-one]
–	–	28.7	12.4	COc1c(-c2ccoc2)oc2c(CC=C(C)C)c(O)c(CC=C(C)C)c(O)c2c1=O [Compound 42, 2-(furan-3-yl)-5,7-dihydroxy-3-methoxy-6,8-di(3-methyl-2-buten-1-yl)-4H-benzopyran-4-one]
–	–	13.8	15.5	COc1c(-c2ccc(Cl)c(C)c2)oc2c(CC=C(C)C)c(O)c(CC=C(C)C)c(O)c2c1=O [Compound 11, 2-(4-chloro-3-methylphenyl)-5,7-dihydroxy-3-methoxy-6,8-di(3-methyl-2-buten-1-yl)-4H-benzopyran-4-one]
–	–	14.2 ± 5.18	16	COc1ccc(-c2oc3c(CC=C(C)C)c(O)c(CC=C(C)C)c(O)c3c(=O)c2OC)cc1F [Compound 1, 2-(3-fluoro-4-methoxyphenyl)-5,7-dihydroxy-3-methoxy-6,8-di(3-methyl-2-buten-1-yl)-4H-benzopyran-4-one]
> 100	22.9	–	–	COc1c(C2CCOC2)oc2c(CC=C(C)C)c(O)c(CC=C(C)C)c(O)c2c1=O (stereo not shown) [Compound 38, 2-(terthydrofuran-3-yl)-5,7-dihydroxy-3-methoxy-6,8-di(3-methyl-2-buten-1-yl)-4H-benzopyran-4-one]
–	–	> 100	> 100	COc1c(CC=C(C)C)cc2c(=O)c(OC)c(-c3ccc(F)c(F)c3)oc2c1CC=C(C)C [Compound 81B, 2-(3,4-difluorophenyl)-3,7-dimethoxy-6,8-di(3-methyl-2-buten-1-yl)-4H-benzopyran-4-one]
